Measured values taken from patent publication US7268128B2, “1,3,5-trisubstituted-5-phenyl and 5-pyridyl pyrazolopyrimidinone derivatives having PDE7 inhibiting action” (Ausbio Pharma Co., Ltd., priority 2001, dated 2007).

molecular target: T1, PDE7 (type VII phosphodiesterase) (Homo sapiens, UniProt Q13946); assay: PDE7 inhibiting activity (3H-cAMP hydrolysis, active fraction from MOLT-4 cells); assay type: biochemical; details: PDE7 fraction from MOLT-4 cells, 0.064 μM cAMP, 10 μM rolipram present, 2 hours at 25° C.; read-out: IC50 values for phosphodiesterase inhibiting activities (PDE7)
T1 construct: endogenous in cells; host or cells: MOLT-4 (ATCC CRL-1582), soluble fraction, HiTrapQ anion-exchange fraction
T1 sequence (Q13946 whole entry): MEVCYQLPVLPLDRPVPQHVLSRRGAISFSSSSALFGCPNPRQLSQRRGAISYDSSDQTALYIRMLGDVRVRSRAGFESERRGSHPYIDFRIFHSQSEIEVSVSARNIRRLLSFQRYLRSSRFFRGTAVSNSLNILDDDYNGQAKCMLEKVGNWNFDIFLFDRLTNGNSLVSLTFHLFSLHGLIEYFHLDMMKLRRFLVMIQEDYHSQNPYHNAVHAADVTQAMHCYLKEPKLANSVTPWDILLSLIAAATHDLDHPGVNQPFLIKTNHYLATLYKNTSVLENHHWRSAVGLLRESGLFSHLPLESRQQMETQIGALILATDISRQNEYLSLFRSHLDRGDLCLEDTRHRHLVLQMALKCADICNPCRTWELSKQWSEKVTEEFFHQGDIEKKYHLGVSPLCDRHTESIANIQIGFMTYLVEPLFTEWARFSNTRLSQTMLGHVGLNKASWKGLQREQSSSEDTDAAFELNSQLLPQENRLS
Protocol: To evaluate the compounds of the present invention for the ability to suppress PDE7 (type VII phosphodiesterase), the method of Biochemical Pharmacol. 48(6), 1219-1223 (1994) was partially modified to perform the following assay:
1) PDE7 (type VII phosphodiesterase) active fraction was obtained. That is, human acute lymphoblastoid lymphoma T cell strain MOLT-4 (purchasable from ATCC under ATCC No. CRL-1582) was cultured in RPMI1640 medium containing 10% fetal bovine serum to obtain 5×10^8 MOLT4 cells. The cells were harvested by centrifugation, and suspended in 10 ml of buffer A (25 mM tris-HCl, 5 mM 2-mercaptoethanol, 2 mM benzamidine, 2 mM EDTA, 0.1 mM 4-(2-aminoethyl)benzenesulfonyl hydrochloride, pH 7=7.5). The cells were homogenized in a Polytoron homogenizer, and centrifuged (4° C., 25,000 G, 10 min). The supernatant was further ultracentrifuged (4° C., 100,000 G, 60 min), and the resulting supernatant was filtered through a 0.2 μm filter to obtain a soluble fraction.
2) HiTrapQ column (5 ml×2) equilibrated with buffer A was charged with the resulting soluble fraction. Phosphodiesterase was eluted using 300 ml of buffer A containing a linear gradient solution of 0 to 0.8M sodium chloride to collect sixty 5 ml fractions. Each fraction was tested for cAMP metabolizing phosphodiesterase activity.
3) The test compounds at desired concentrations were each reacted for 2 hours at 25° C. in a reactant mixture containing 20 mM tris-HCl (pH 7.5), 1 mM MgCl2, 100 μM EDTA, 330 μg/ml bovine serum albumin, 4 μg/ml 5′-nucleotidase, 0.1 μCi^3H-cAMP (0.064 μM cAMP), 10 μM rolipram, and the type VII phosphodiesterase stored solution. QAE-Sephadex suspended in 10 mM HEPES-Na (pH 7.0) was added to the reaction mixture, and the mixture was allowed to stand for 5 minutes. Then, the supernatant was recovered, and QAE-Sephadex was further added, followed by allowing the mixture to stand for 5 minutes. Then, the resulting supernatant was measure for radioactivity.
4) IC50, as the concentration of the test compound that inhibited 50% of the metabolic activity of PDE7, was calculated for each of the compounds.

SMILES	IC50
Cc1nn(C2CCCCC2)c2c(=O)[nH]c(-c3ccccc3)nc12 [Example 1, 1-Cyclohexyl-3-methyl-5-phenyl-1,6-dihydro-7H-pyrazolo[4,3-d]pyrimidin-7-one]	≤ 1000 nM
Cc1nn(C2CCCCC2)c2c(=O)[nH]c(-c3ccc([N+](=O)[O-])cc3)nc12 [Example 2, 1-Cyclohexyl-3-methyl-5-(4-nitrophenyl)-1,6-dihydro-7H-pyrazolo[4,3-d]pyrimidin-7-one]	≤ 1000 nM
Cc1nn(C2CCCCC2)c2c(=O)[nH]c(-c3ccc(N)cc3)nc12 [Example 3, 5-(4-Aminophenyl)-1-cyclohexyl-3-methyl-1,6-dihydro-7H-pyrazolo[4,3-d]pyrimidin-7-one]	≤ 1000 nM
CC(=O)Nc1ccc(-c2nc3c(C)nn(C4CCCCC4)c3c(=O)[nH]2)cc1 [Example 4, N-[4-(1-cyclohexyl-3-methyl-7-oxo-6,7-dihydro-1H-pyrazolo[4,3-d]pyrimidin-5-yl)phenyl]acetamide]	≤ 1000 nM
COc1ccccc1-c1nc2c(C)nn(C3CCCCC3)c2c(=O)[nH]1 [Example 5, 1-Cyclohexyl-5-(2-methoxyphenyl)-3-methyl-1,6-dihydro-7H-pyrazolo[4,3-d]pyrimidin-7-one]	≤ 1000 nM
Cc1nn(C2CCCCC2)c2c(=O)[nH]c(-c3ccccn3)nc12 [Example 6, 1-Cyclohexyl-3-methyl-5-(2-pyridinyl)-1,6-dihydro-7H-pyrazolo[4,3-d]pyrimidin-7-one]	≤ 1000 nM
Cc1nn(C2CCCCC2)c2c(=O)[nH]c(-c3ccc(N4CCN(C)CC4)cc3)nc12 [Example 7, 1-Cyclohexyl-3-methyl-5-[4-(4-methyl-1-piperazinyl)phenyl]-1,6-dihydro-7H-pyrazolo[4,3-d]pyrimidin-7-one]	≤ 1000 nM
COc1cc([N+](=O)[O-])ccc1-c1nc2c(C)nn(C3CCCCC3)c2c(=O)[nH]1 [Example 8, 1-Cyclohexyl-5-(2-methoxy-4-nitrophenyl)-3-methyl-1,6-dihydro-7H-pyrazolo[4,3-d]pyrimidin-7-one]	≤ 1000 nM
COc1cc(NC(C)=O)ccc1-c1nc2c(C)nn(C3CCCCC3)c2c(=O)[nH]1 [Example 10, N-[4-(1-cyclohexyl-3-methyl-7-oxo-6,7-dihydro-1H-pyrazolo[4,3-d]pyrimidin-5-yl)-3-methoxyphenyl]acetamide]	≤ 1000 nM
Cc1nn(C2CCCCC2)c2c(=O)[nH]c(-c3ccc(N)cn3)nc12 [Example 11, 5-(5-Amino-2-pyridinyl)-1-cyclohexyl-3-methyl-1,6-dihydro-7H-pyrazolo[4,3-d]pyrimidin-7-one]	≤ 1000 nM
CC(=O)Nc1ccc(-c2nc3c(C)nn(C4CCCCC4)c3c(=O)[nH]2)nc1 [Example 12, N-[6-(1-cyclohexyl-3-methyl-7-oxo-1H-pyrazolo[4,3-d]pyrimidin-5-yl)-3-pyridinyl]acetamide]	≤ 1000 nM
CCOc1ccccc1-c1nc2c(C)nn(C3CCCCC3)c2c(=O)[nH]1 [Example 13, 1-Cyclohexyl-5-(2-ethoxyphenyl)-3-methyl-1,6-dihydro-7H-pyrazolo[4,3-d]pyrimidin-7-one]	≤ 1000 nM
Cc1nn(C2CCCCC2)c2c(=O)[nH]c(-c3ccc(N4CCC(O)CC4)cc3)nc12 [Example 14, 1-Cyclohexyl-5-[4-(4-hydroxy-1-piperidinyl)phenyl]-3-methyl-1,6-dihydro-7H-pyrazolo[4,3-d]pyrimidin-7-one]	≤ 1000 nM
COc1cc(N2CCN(C)CC2)ccc1-c1nc2c(C)nn(C3CCCCC3)c2c(=O)[nH]1 [Example 16, 1-Cyclohexyl-5-[2-methoxy-4-(4-methyl-1-piperazinyl)phenyl]-3-methyl-1,6-dihydro-7H-pyrazolo[4,3-d]pyrimidin-7-one]	≤ 1000 nM
Cc1nn(C2CCCCC2)c2c(=O)[nH]c(-c3cc(Cl)ccn3)nc12 [Example 17, 5-(4-Chloro-2-pyridinyl)-1-cyclohexyl-3-methyl-1,6-dihydro-7H-pyrazolo[4,3-d]pyrimidin-7-one]	≤ 1000 nM
COc1ccc(F)cc1-c1nc2c(C)nn(C3CCCCC3)c2c(=O)[nH]1 [Example 18, 1-Cyclohexyl-5-(5-fluoro-2-methoxyphenyl)-3-methyl-1,6-dihydro-7H-pyrazolo[4,3-d]pyrimidin-7-one]	≤ 1000 nM
COc1ccccc1-c1nc2c(c(C3CCCCC3)nn2C)c(=O)[nH]1 [Example 24, 3-Cyclohexyl-6-(2-methoxyphenyl)-1-methyl-1,5-dihydro-4H-pyrazolo[3,4-d]pyrimidin-4-one]	≤ 1000 nM
Cn1nc(C2CCCCC2)c2c(=O)[nH]c(-c3ccccn3)nc21 [Example 25, 3-Cyclohexyl-1-methyl-6-(2-pyridinyl)-1,5-dihydro-4H-pyrazolo[3,4-d]pyrimidin-4-one]	≤ 1000 nM
COc1cc(N2CCN(C)CC2)ccc1-c1nc2c(c(C3CCCCC3)nn2C)c(=O)[nH]1 [Example 27, 3-Cyclohexyl-6-[2-methoxy-4-(4-methyl-1-piperazinyl)phenyl]-1-methyl-1,5-dihydro-4H-pyrazolo[3,4-d]pyrimidin-4-one]	≤ 10 nM
COc1cc(N2CCN(C)CC2)ccc1-c1nc2c(c(C3CCCCC3)nn2C)c(=O)[nH]1 [Example 28, 3-Cyclohexyl-6-[2-methoxy-4-(4-methyl-1-piperazinyl)phenyl]-1-methyl-1,5-dihydro-4H-pyrazolo[3,4-d]pyrimidin-4-one monomethanesulfonate]	≤ 10 nM
COc1cc(N2CCC3(CC2)OCCO3)ccc1-c1nc2c(c(C3CCCCC3)nn2C)c(=O)[nH]1 [Example 29, 3-Cyclohexyl-6-[4-(1,4-dioxa-8-azaspiro[4,5]deca-8-yl)-2-methoxyphenyl]-1-methyl-1,5-dihydro-4H-pyrazolo[3,4-d]pyrimidin-4-one]	≤ 1000 nM
COc1cc(N2CCC(O)CC2)ccc1-c1nc2c(c(C3CCCCC3)nn2C)c(=O)[nH]1 [Example 31, 3-Cyclohexyl-6-[4-(4-hydroxy-1-piperidinyl)-2-methoxyphenyl]-1-methyl-1,5-dihydro-4H-pyrazolo[3,4-d]pyrimidin-4-one]	≤ 10 nM
COc1cc(N2CCC(O)CC2)ccc1-c1nc2c(c(C3CCCCC3)nn2C)c(=O)[nH]1 [Example 32, 3-Cyclohexyl-6-[4-(4-hydroxy-1-piperidinyl)-2-methoxyphenyl]-1-methyl-1,5-dihydro-4H-pyrazolo[3,4-d]pyrimidin-4-one monomethanesulfonate]	≤ 10 nM
COCCOc1ccc(-c2nc3c(c(C4CCCCC4)nn3C)c(=O)[nH]2)c(OC)c1 [Example 34, 3-Cyclohexyl-6-[2-methoxy-4-(2-methoxyethoxy)phenyl]-1-methyl-1,5-dihydro-4H-pyrazolo[3,4-d]pyrimidin-4-one]	≤ 1000 nM
COc1cc(OCCO)ccc1-c1nc2c(c(C3CCCCC3)nn2C)c(=O)[nH]1 [Example 37, 3-Cyclohexyl-6-[4-(2-hydroxyethoxy)-2-methoxyphenyl]-1-methyl-1,5-dihydro-4H-pyrazolo[3,4-d]pyrimidin-4-one]	≤ 1000 nM
COc1cc(O[C@H]2CCOC2)ccc1-c1nc2c(c(C3CCCCC3)nn2C)c(=O)[nH]1 [Example 38, 3-Cyclohexyl-6-{2-methoxy-4-[(3S)-tetrahydro-3-furanyloxy]phenyl}-1-methyl-1,5-dihydro-4H-pyrazolo[3,4-d]pyrimidin-4-one]	≤ 10 nM
COc1cc(O[C@@H]2CCOC2)ccc1-c1nc2c(c(C3CCCCC3)nn2C)c(=O)[nH]1 [Example 39, 3-Cyclohexyl-6-{2-methoxy-4-[(3R)-tetrahydro-3-furanyloxy]phenyl}-1-methyl-1,5-dihydro-4H-pyrazolo[3,4-d]pyrimidin-4-one]	≤ 1000 nM
COc1cc(OCC(=O)O)ccc1-c1nc2c(c(C3CCCCC3)nn2C)c(=O)[nH]1 [Example 41, [4-(3-cyclohexyl-1-methyl-4-oxo-4,5-dihydro-1H-pyrazolo[3,4-d]pyrimidin-6-yl)-3-methoxyphenoxy]acetic acid]	≤ 1000 nM
COc1cc(OC2CCN(C)CC2)ccc1-c1nc2c(c(C3CCCCC3)nn2C)c(=O)[nH]1 [Example 42, 3-Cyclohexyl-6-{2-methoxy-4-[(-methyl-4-piperidinyl)oxy]phenyl}-1-methyl-1,5-dihydro-4H-pyrazolo[3,4-d]pyrimidin-4-one monomaleate]	≤ 1000 nM
COc1cc(N)ccc1-c1nc2c(c(C3CCCCC3)nn2C)c(=O)[nH]1 [Example 44, 6-(4-Amino-2-methoxyphenyl)-3-cyclohexyl-1-methyl-1,5-dihydro-4H-pyrazolo[3,4-d]pyrimidin-4-one]	≤ 10 nM
